The text below walks through data of publication PMC11721672, “Design, Structure–Activity Relationships, and Computational Modeling Studies of a Series of α-Helix Biased, Ultra-Short Glucagon-like Peptide-1 Receptor Agonists” (Molecules, 2024).

Like-named read-outs stand apart in the source and are kept apart here. Square brackets hold non-standard residues; d marks the D form. Peptide text beside a SMILES is read from it. Bip = N[C@@H](Cc1ccc(-c2ccccc2)cc1)C(=O)O; αMeF = C[C@](N)(Cc1ccccc1)C(=O)O; Aib = CC(C)(N)C(=O)O

For the assay, the target named is T1, hGLP1 receptor (Homo sapiens, UniProt P43220).
T1 construct: expressed in transfected cells; host or cells: HEK (human embryonic kidney) cells co-expressing hGLP1 receptor and CRE-Luciferase
T1 sequence (P43220 24-463): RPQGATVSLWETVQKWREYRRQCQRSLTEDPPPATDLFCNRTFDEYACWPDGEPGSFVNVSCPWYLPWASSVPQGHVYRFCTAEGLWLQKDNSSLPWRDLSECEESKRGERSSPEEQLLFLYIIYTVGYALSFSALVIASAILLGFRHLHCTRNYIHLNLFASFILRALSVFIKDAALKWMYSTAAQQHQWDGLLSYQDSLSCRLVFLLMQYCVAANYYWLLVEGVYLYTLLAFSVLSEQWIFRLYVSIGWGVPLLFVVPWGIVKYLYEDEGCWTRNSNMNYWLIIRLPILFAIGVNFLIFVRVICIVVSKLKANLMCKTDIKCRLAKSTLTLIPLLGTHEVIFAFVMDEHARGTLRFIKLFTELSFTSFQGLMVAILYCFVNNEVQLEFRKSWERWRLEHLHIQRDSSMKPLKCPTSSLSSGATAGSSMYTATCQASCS
The assay is described as follows: GLP-1 receptor agonism assay (HTRF cAMP, HEK cells co-expressing hGLP1 receptor and CRE-Luciferase). The assay is classed as cell-based. The note with it: for Emax: HEK293, Table 6 potency profile. On the procedure:
Human embryonic kidney cells (HEK) co-expressing the hGLP1 receptor and CRE-Luciferase construct were used to determine agonist potency in this assay. The cells were thawed briefly at 37 °C, transferred to a sterile tube, and re-suspended in complete media at 37 °C. Cells were centrifuged at 1000 rpm for 5 min and collected; the cells were then re-suspended in an assay buffer consisting of Dulbecco’s phosphate-buffered saline (DPBS, GIBCO) with 500 μM of the phosphodiesterase inhibitor 3-isobutyl-1-methylxanthine (IBMX). The assay medium had 0% serum albumin, as specified in Table 1, Table 2, Table 3 and Table 4. The optimal cell density was determined to be 1000 cells/well. Cells were added to wells in 384-well plates containing appropriate pre-prepared dilutions of compounds (test peptides or reference compound exendin-4), sealed, and incubated with CO2 for 30 min. Test peptide solutions were diluted from 10 mM stock solutions to be used in two separate runs (performed in triplicate) from a maximal concentration of 1.0 μM, with 11 concentrations tested for each peptide using serial 1:3 dilution from this maximal concentration. […] The agonist assay was a homogeneous time-resolved fluorescence (HTRF) assay (Cisbio). Following incubation of the cells for 30 min with test or reference peptides, 5 μL of the cAMP acceptor cAMP-d2, prepared previously as a working solution from frozen stock (1:20 dilution), was added to each well of the assay plate along with 5 μL of anti-cAMP antibody-cryptate working solution (diluted 1:20 from frozen stock). The wells were incubated for 1 h at room temperature, and fluorescence was then read at 665 and 615 nm with an Envision reader with a TRF laser. Data were saved and analyzed using Prism software (GraphPad). Concentration–response analysis was performed using 4-parameter logistic fits of the resulting data, and EC50 values were obtained for each test and reference compound.

Setting [1] is: Table 1, Phe6 modifications, 0% HSA, average of two independent experiments in triplicate (RXL-3039 tested once), read-out: cAMP EC50.

In the case of `C[C@@H](O)[C@H](NC(=O)CNC(=O)[C@H](CCC(=O)O)NC(=O)C(C)(C)NC(=O)[C@@H](N)Cc1c[nH]cn1)C(=O)N[C@@H](Cc1ccccc1C(F)(F)F)C(=O)N[C@H](C(=O)N[C@@H](CO)C(=O)N[C@@H](CC(=O)O)C(=O)N[C@@H](Cc1ccc(-c2ccccc2)cc1)C(=O)N[C@@H](Cc1ccc(-c2ccccc2)cc1)C(N)=O)[C@@H](C)O` [RXL-3012, His-Aib-Glu-Gly-Thr-Phe(2-CF3)-Thr-Ser-Asp-Bip-Bip-NH2], the Emax (as a rule, the greatest response seen or fitted, relative to the assay's reference) worked out at 99.3%. Besides, under setting [1], the EC50 was 13.9 nM.

`Cc1ccccc1C[C@H](NC(=O)[C@@H](NC(=O)CNC(=O)[C@H](CCC(=O)O)NC(=O)C(C)(C)NC(=O)[C@@H](N)Cc1c[nH]cn1)[C@@H](C)O)C(=O)N[C@H](C(=O)N[C@@H](CO)C(=O)N[C@@H](CC(=O)O)C(=O)N[C@@H](Cc1ccc(-c2ccccc2)cc1)C(=O)N[C@@H](Cc1ccc(-c2ccccc2)cc1)C(N)=O)[C@@H](C)O` [RXL-3013, His-Aib-Glu-Gly-Thr-Phe(2-CH3)-Thr-Ser-Asp-Bip-Bip-NH2] had an Emax of 98.6%. Moreover, the EC50 under setting [1] came to 2.1 nM.

Consider `C[C@@H](O)[C@H](NC(=O)CNC(=O)[C@H](CCC(=O)O)NC(=O)C(C)(C)NC(=O)[C@@H](N)Cc1c[nH]cn1)C(=O)N[C@@H](Cc1ccccc1[N+](=O)[O-])C(=O)N[C@H](C(=O)N[C@@H](CO)C(=O)N[C@@H](CC(=O)O)C(=O)N[C@@H](Cc1ccc(-c2ccccc2)cc1)C(=O)N[C@@H](Cc1ccc(-c2ccccc2)cc1)C(N)=O)[C@@H](C)O` [RXL-3014, His-Aib-Glu-Gly-Thr-Phe(2-NO2)-Thr-Ser-Asp-Bip-Bip-NH2], for which the Emax turned out to be 104%. Moreover, under setting [1], the EC50 worked out at 1.1 nM.

`C[C@@H](O)[C@H](NC(=O)CNC(=O)[C@H](CCC(=O)O)NC(=O)C(C)(C)NC(=O)[C@@H](N)Cc1c[nH]cn1)C(=O)N[C@@H](Cc1ccccc1C#N)C(=O)N[C@H](C(=O)N[C@@H](CO)C(=O)N[C@@H](CC(=O)O)C(=O)N[C@@H](Cc1ccc(-c2ccccc2)cc1)C(=O)N[C@@H](Cc1ccc(-c2ccccc2)cc1)C(N)=O)[C@@H](C)O` [RXL-3015, His-Aib-Glu-Gly-Thr-Phe(2-CN)-Thr-Ser-Asp-Bip-Bip-NH2] returned an Emax of 101%. For the same molecule, the EC50 under setting [1] came out at 7.7 nM.

Regarding `C[C@@H](O)[C@H](NC(=O)CNC(=O)[C@H](CCC(=O)O)NC(=O)C(C)(C)NC(=O)[C@@H](N)Cc1c[nH]cn1)C(=O)N[C@@H](Cc1cccc(C(F)(F)F)c1)C(=O)N[C@H](C(=O)N[C@@H](CO)C(=O)N[C@@H](CC(=O)O)C(=O)N[C@@H](Cc1ccc(-c2ccccc2)cc1)C(=O)N[C@@H](Cc1ccc(-c2ccccc2)cc1)C(N)=O)[C@@H](C)O` [RXL-3016, His-Aib-Glu-Gly-Thr-Phe(3-CF3)-Thr-Ser-Asp-Bip-Bip-NH2], the Emax came out at 109%. Besides, under setting [1], the EC50 was 13.9 nM.

For `C[C@@H](O)[C@H](NC(=O)CNC(=O)[C@H](CCC(=O)O)NC(=O)C(C)(C)NC(=O)[C@@H](N)Cc1c[nH]cn1)C(=O)N[C@@H](Cc1cc(F)c(F)c(F)c1)C(=O)N[C@H](C(=O)N[C@@H](CO)C(=O)N[C@@H](CC(=O)O)C(=O)N[C@@H](Cc1ccc(-c2ccccc2)cc1)C(=O)N[C@@H](Cc1ccc(-c2ccccc2)cc1)C(N)=O)[C@@H](C)O` [RXL-3017, His-Aib-Glu-Gly-Thr-Phe(3,4,5-F)-Thr-Ser-Asp-Bip-Bip-NH2], the Emax amounted to 113%. The EC50 under setting [1] was determined as 7.2 nM.

`C[C@@H](O)[C@H](NC(=O)CNC(=O)[C@H](CCC(=O)O)NC(=O)C(C)(C)NC(=O)[C@@H](N)Cc1c[nH]cn1)C(=O)N[C@@H](Cc1c(F)c(F)c(F)c(F)c1F)C(=O)N[C@H](C(=O)N[C@@H](CO)C(=O)N[C@@H](CC(=O)O)C(=O)N[C@@H](Cc1ccc(-c2ccccc2)cc1)C(=O)N[C@@H](Cc1ccc(-c2ccccc2)cc1)C(N)=O)[C@@H](C)O` [RXL-3018, His-Aib-Glu-Gly-Thr-Phe(2,3,4,5,6-F)-Thr-Ser-Asp-Bip-Bip-NH2] registered an Emax of 102%. Under setting [1], the EC50 came to 0.3 nM. In addition, the “GLP-1R agonist potency relative to RXL-3000” value (versus RXL-3000) is listed as “threefold less potent”.

In turn, `C[C@@H](O)[C@H](NC(=O)CNC(=O)[C@H](CCC(=O)O)NC(=O)C(C)(C)NC(=O)[C@@H](N)Cc1c[nH]cn1)C(=O)N[C@@H](CCc1ccccc1)C(=O)N[C@H](C(=O)N[C@@H](CO)C(=O)N[C@@H](CC(=O)O)C(=O)N[C@@H](Cc1ccc(-c2ccccc2)cc1)C(=O)N[C@@H](Cc1ccc(-c2ccccc2)cc1)C(N)=O)[C@@H](C)O` [RXL-3019, His-Aib-Glu-Gly-Thr-hPhe-Thr-Ser-Asp-Bip-Bip-NH2] registered an Emax of 110%. Besides, under setting [1], the EC50 amounted to 16 nM.

The molecule `C[C@@H](O)[C@H](NC(=O)CNC(=O)[C@H](CCC(=O)O)NC(=O)C(C)(C)NC(=O)[C@@H](N)Cc1c[nH]cn1)C(=O)N[C@@](C)(Cc1ccccc1)C(=O)N[C@H](C(=O)N[C@@H](CO)C(=O)N[C@@H](CC(=O)O)C(=O)N[C@@H](Cc1ccc(-c2ccccc2)cc1)C(=O)N[C@@H](Cc1ccc(-c2ccccc2)cc1)C(N)=O)[C@@H](C)O` [RXL-3020, His-Aib-Glu-Gly-Thr-α-Me-Phe-Thr-Ser-Asp-Bip-Bip-NH2] (H-H[Aib]EGT[αMeF]TSD[Bip][Bip]-NH2) displayed an Emax of 108%.

The molecule `C[C@@H](O)[C@H](NC(=O)CNC(=O)[C@H](CCC(=O)O)NC(=O)C(C)(C)NC(=O)[C@@H](N)Cc1c[nH]cn1)C(=O)N[C@@H](Cc1ccc(O)cc1)C(=O)N[C@H](C(=O)N[C@@H](CO)C(=O)N[C@@H](CC(=O)O)C(=O)N[C@@H](Cc1ccc(-c2ccccc2)cc1)C(=O)N[C@@H](Cc1ccc(-c2ccccc2)cc1)C(N)=O)[C@@H](C)O` [RXL-3021, His-Aib-Glu-Gly-Thr-Tyr-Thr-Ser-Asp-Bip-Bip-NH2] (H-H[Aib]EGTYTSD[Bip][Bip]-NH2) returned an Emax of 100%. In addition, under setting [1], the EC50 was determined as 3 nM.

`C[C@@H](O)[C@H](NC(=O)CNC(=O)[C@H](CCC(=O)O)NC(=O)C(C)(C)NC(=O)[C@@H](N)Cc1c[nH]cn1)C(=O)N[C@H](Cc1ccccc1)C(=O)N[C@H](C(=O)N[C@@H](CO)C(=O)N[C@@H](CC(=O)O)C(=O)N[C@@H](Cc1ccc(-c2ccccc2)cc1)C(=O)N[C@@H](Cc1ccc(-c2ccccc2)cc1)C(N)=O)[C@@H](C)O` [RXL-3022, His-Aib-Glu-Gly-Thr-D-Phe-Thr-Ser-Asp-Bip-Bip-NH2]: the Emax amounted to 101%. Also, under setting [1], the EC50 came to 23.2 nM.

The molecule `C[C@@H](O)[C@H](NC(=O)CNC(=O)[C@H](CCC(=O)O)NC(=O)C(C)(C)NC(=O)[C@@H](N)Cc1c[nH]cn1)C(=O)N[C@@H](Cc1c[nH]c2ccccc12)C(=O)N[C@H](C(=O)N[C@@H](CO)C(=O)N[C@@H](CC(=O)O)C(=O)N[C@@H](Cc1ccc(-c2ccccc2)cc1)C(=O)N[C@@H](Cc1ccc(-c2ccccc2)cc1)C(N)=O)[C@@H](C)O` [RXL-3023, His-Aib-Glu-Gly-Thr-Trp-Thr-Ser-Asp-Bip-Bip-NH2] (H-H[Aib]EGTWTSD[Bip][Bip]-NH2) displayed an Emax of 106%. Besides, the EC50 under setting [1] is 13.8 nM.

`C[C@@H](O)[C@H](NC(=O)CNC(=O)[C@H](CCC(=O)O)NC(=O)C(C)(C)NC(=O)[C@@H](N)Cc1c[nH]cn1)C(=O)N[C@@H](Cc1ccc(-c2ccccc2)cc1)C(=O)N[C@H](C(=O)N[C@@H](CO)C(=O)N[C@@H](CC(=O)O)C(=O)N[C@@H](Cc1ccc(-c2ccccc2)cc1)C(=O)N[C@@H](Cc1ccc(-c2ccccc2)cc1)C(N)=O)[C@@H](C)O` [RXL-3024, His-Aib-Glu-Gly-Thr-Bip-Thr-Ser-Asp-Bip-Bip-NH2] (H-H[Aib]EGT[Bip]TSD[Bip][Bip]-NH2) yielded an Emax of 102%. Further, the EC50 under setting [1] stood at 10.8 nM.

With `C[C@@H](O)[C@H](NC(=O)CNC(=O)[C@H](CCC(=O)O)NC(=O)C(C)(C)NC(=O)[C@@H](N)Cc1c[nH]cn1)C(=O)NC(C)(C)C(=O)N[C@H](C(=O)N[C@@H](CO)C(=O)N[C@@H](CC(=O)O)C(=O)N[C@@H](Cc1ccc(-c2ccccc2)cc1)C(=O)N[C@@H](Cc1ccc(-c2ccccc2)cc1)C(N)=O)[C@@H](C)O` [RXL-3028, His-Aib-Glu-Gly-Thr-Aib-Thr-Ser-Asp-Bip-Bip-NH2] (H-H[Aib]EGT[Aib]TSD[Bip][Bip]-NH2), the Emax is 76.1%. Also, the “rescue of potency by Aib versus Ala substitution” value (Aib analog versus Ala analog at the same position) is recorded as “more than 10 fold”. Also, under “Aib-scanning, versus parent analog RXL-101”, the “decreased potency by Aib substitution” value is listed as at least 100 fold. In addition, the EC50 (Table 3, Aib-scanning, 0% HSA, >1000 nM = out of range, read-out: cAMP EC50) was found to be 161 nM. Besides, where the note is “Table 4, Aib-scan peptides, 0% HSA, read-out: pEC50 (converted)”, the EC50 is 105 nM. For the setting “dpEC50 = pEC50 (Aib) − pEC50 (Ala) − 0.97, Aib peptide versus the Ala peptide of the same line, 0% HSA”, the “dpEC50 (contribution of Cα-methylation)” value was 0.46.
